Experiments:
Assay in all cases: Anti-proliferative assay (Oncodesign)
Format in all cases: cell-based
A-375 = details: Homo sapiens; A-375 (SKIN); read-out: IC50 (Concentration of test compound)
Description: (§1) The anti-proliferative activities of the parent compounds of the pro-drugs of the invention may be determined by measuring the ability of the compounds to inhibition of cell growth in a number of cell lines such as the human colon cancer cell line HCT116. Inhibition of cell growth is measured using the Alamar Blue assay (Nociari, M. M, Shalev, A., Benias, P., Russo, C. Journal of Immunological Methods 1998, 213, 157-167). The method is based on the ability of viable cells to reduce resazurin to its fluorescent product resorufin. For each proliferation assay cells are plated onto 96 well plates and allowed to recover for 16 hours prior to the addition of inhibitor compounds for a further 72 hours. At the end of the incubation period 10% (v/v) Alamar Blue is added and incubated for a further 6 hours prior to determination of fluorescent product at […]. In the case of the non-proliferating cell assay cells are maintained at confluence for 96 hour prior to the addition of inhibitor compounds for a further 72 hours. The number of viable cells is determined by Alamar Blue assay as before. Cell lines may be obtained from the ECACC (European Collection of cell Cultures).
(§2) The parent compound of the pro-drugs of Examples 1 to 25 i.e. (2,4-dihydroxy-5-isopropyl-phenyl)-[5-(4-methyl-piperazin-1-ylmethyl)-1,3-dihydro-isoindol-2-yl]-methanone, in the form of its L-lactate salt, was tested in anti-proliferative assays against one hundred cell lines by Oncodesign (Dijon, France). The IC50 values against each cell line are set out in the table below and the figures in the table refer to nanomolar concentrations. The compounds were tested up to a concentration of 10,000 nanomolar.

BxPC-3 = details: Homo sapiens; BxPC-3 (PANCREAS); read-out: IC50 (Concentration of test compound)
Description: as §1, §2

CAMA-1 = details: Homo sapiens; CAMA-1 (BREAST); read-out: IC50 (Concentration of test compound)
Description: as §1, §2

CCRF-CEM = details: Homo sapiens; CCRF-CEM (BLOOD); read-out: IC50 (Concentration of test compound)
Description: as §1, §2

CGL-9 = CGL-9 (BRAIN); read-out: IC50 (Concentration of test compound)
Description: as §1, §2

Caki-1 = details: Homo sapiens; Caki-1 (KIDNEY); read-out: IC50 (Concentration of test compound)
Description: as §1, §2

DLD-1 = details: Homo sapiens; DLD-1 (COLON); read-out: IC50 (Concentration of test compound)
Description: as §1, §2

Evsa-T = details: Homo sapiens; Evsa-T (BREAST); read-out: IC50 (Concentration of test compound)
Description: as §1, §2

HCT-15 = details: Homo sapiens; HCT-15 (COLON); read-out: IC50 (Concentration of test compound)
Description: as §1, §2

J82 = details: Homo sapiens; J82 (URINARY BLADDER); read-out: IC50 (Concentration of test compound)
Description: as §1, §2

K-562 = details: Homo sapiens, K562; K-562 (BLOOD); read-out: IC50 (Concentration of test compound)
Description: as §1, §2

KB3 = KB3 (HEAD AND NECK); read-out: IC50 (Concentration of test compound)
Description: as §1, §2

LAMA-84 = details: Homo sapiens; LAMA-84 (BLOOD); read-out: IC50 (Concentration of test compound)
Description: as §1, §2

LB61-NSCLC = LB61-NSCLC (LUNG); read-out: IC50 (Concentration of test compound)
Description: as §1, §2

LS 174T = details: Homo sapiens, LS174T; LS 174T (COLON); read-out: IC50 (Concentration of test compound)
Description: as §1, §2

MC90 = MC90 (BLOOD); read-out: IC50 (Concentration of test compound)
Description: as §1, §2

NCI-H520 = details: Homo sapiens; NCI-H520 (LUNG); read-out: IC50 (Concentration of test compound)
Description: as §1, §2

NCI-H596 = details: Homo sapiens; NCI-H596 (LUNG); read-out: IC50 (Concentration of test compound)
Description: as §1, §2

NIH: OVCAR-3 = details: Homo sapiens; NIH: OVCAR-3 (OVARY); read-out: IC50 (Concentration of test compound)
Description: as §1, §2

PA-1 = details: Homo sapiens; PA-1 (OVARY); read-out: IC50 (Concentration of test compound)
Description: as §1, §2

RPMI 8226/Dox40 = details: Homo sapiens; RPMI 8226/Dox40 (BLOOD); read-out: IC50 (Concentration of test compound)
Description: as §1, §2

Raji = details: Homo sapiens; Raji (BLOOD); read-out: IC50 (Concentration of test compound)
Description: as §1, §2

Ramos = details: Homo sapiens; Ramos (BLOOD); read-out: IC50 (Concentration of test compound)
Description: as §1, §2

SK-MEL-2 = details: Homo sapiens; SK-MEL-2 (SKIN); read-out: IC50 (Concentration of test compound)
Description: as §1, §2

SK-MES-1 = details: Homo sapiens; SK-MES-1 (LUNG); read-out: IC50 (Concentration of test compound)
Description: as §1, §2

UZG4-MEL = UZG4-MEL (SKIN); read-out: IC50 (Concentration of test compound)
Description: as §1, §2

IC50 (A-375): 1480 nM
IC50 (BxPC-3): 196 nM
IC50 (CCRF-CEM): 107 nM
IC50 (DLD-1): 56 nM
IC50 (HCT-15): > 10000 nM
IC50 (K-562): 147 nM
IC50 (NCI-H520): 98 nM
IC50 (NCI-H596): 84 nM
IC50 (NIH: OVCAR-3): 45 nM
IC50 (Raji): 881 nM
IC50 (Ramos): 46 nM
IC50 (SK-MEL-2): 138 nM
IC50 (SK-MES-1): 270 nM
SMILES: CC(C)c1cc(C(=O)N2Cc3ccc(CN4CCN(C)CC4)cc3C2)c(O)cc1O [(2,4-dihydroxy-5-isopropyl-phenyl)-[5-(4-methyl-piperazin-1-ylmethyl)-1,3-dihydro-isoindol-2-yl]-methanone]
IC50 (CAMA-1): 22 nM
IC50 (CGL-9): 161 nM
IC50 (Caki-1): > 10000 nM
IC50 (Evsa-T): 168 nM
IC50 (J82): 20 nM
IC50 (KB3): 48 nM
IC50 (LAMA-84): 1100 nM
IC50 (LB61-NSCLC): > 10000 nM
IC50 (LS 174T): 159 nM
IC50 (MC90): 93 nM
IC50 (PA-1): > 10000 nM
IC50 (RPMI 8226/Dox40): 213 nM
IC50 (UZG4-MEL): 180 nM

From patent US8383619B2, “Pharmaceutical compounds” (Astex Therapeutics Limited, priority 2008, dated 2013)
